Data: patent US20230233425A1, “USE OF VOLATILE COMPOSITIONS TO LIMIT OR ELIMINATE THE PERCEPTION OF MALODOR” (Firmenich SA, priority 2017, published 2023)
Marks after values point to notes of the source that are not given here.

Assays:
[1] = tested on: geonol earthy/moss odor perception; assay: Human sensory performance of test compounds with and without geonol; format: in vivo; conditions: for % Earthy/Moss Odor: Test Compound Only
Description: Sensory Evaluation: Five 16 oz glass jars containing either REF (geonol only), geonol only control, antagonist only, mixture of geonol and isointense antagonist, or mixture of geonol and low intensity antagonist were presented to the panelists (last four samples were randomized across panelists). The panelists were asked to familiarize themselves with the earthy/moss odor quality from the REF jar first, then rate the pleasantness, earthy/moss odor intensity and overall odor intensity of the next four samples on a 0-10 linear scale. The inter-stimulus interval between the samples was two minutes to avoid adaptation. […]
The results are shown in Tables 16 and 17, and FIGS. 3 to 5.

[2] = tested on: 1-octen-3-ol mushroom/earthy/fungal odor perception; assay: Human sensory performance of test compounds with and without 1-octen-3-ol; format: in vivo; conditions: for % Mushroom/Earthy/Fungal Odor: Test Compound Only
[3] = tested on: geonol malodor (earthy/moss odor) perception; assay: Sensory evaluation of geonol earthy/moss odor in iso-intense binary mixtures (glass jars); format: in vivo, human; conditions: iso-intense binary mixture
Description: Sensory Evaluation: Five 16 oz glass jars containing either REF (geonol only), geonol only control, antagonist only, mixture of geonol and isointense antagonist, or mixture of geonol and low intensity antagonist were presented to the panelists (last four samples were randomized across panelists). The panelists were asked to familiarize themselves with the earthy/moss odor quality from the REF jar first, then rate the pleasantness, earthy/moss odor intensity and overall odor intensity of the next four samples on a 0-10 linear scale. The inter-stimulus interval between the samples was two minutes to avoid adaptation.

[4] = tested on: OR11A1, or the OR2M3 olfactory receptor; assay: Geonol olfactory receptor antagonist cell-based screening, inhibitory dose-response vs geonol EC80; set-up: species or system human; conditions: geonol at EC80; for IC50: read-out: IC50
[5] = target: T1, OR51E1 olfactory receptor (Homo sapiens, UniProt Q8TCB6); assay: Butyric acid olfactory receptor antagonist cell-based dose-response vs butyric acid EC80; conditions: butyric acid at EC80; Table 5
T1 construct: expressed in transfected cells
T1 sequence (Q8TCB6 1-318): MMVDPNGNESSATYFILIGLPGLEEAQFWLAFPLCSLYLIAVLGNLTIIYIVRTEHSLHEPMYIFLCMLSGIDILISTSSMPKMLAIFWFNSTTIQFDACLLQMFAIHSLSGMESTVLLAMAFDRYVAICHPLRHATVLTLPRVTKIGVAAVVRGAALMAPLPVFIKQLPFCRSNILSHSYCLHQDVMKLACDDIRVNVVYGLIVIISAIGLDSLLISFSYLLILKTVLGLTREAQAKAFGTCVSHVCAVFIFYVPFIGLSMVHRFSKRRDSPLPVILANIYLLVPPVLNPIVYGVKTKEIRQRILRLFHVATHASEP

[6] = target: Olfr741 (Mus musculus, UniProt L7N1Y5); assay: Indole antagonist dose-response, cAMP HTRF in HEK293T, vs indole EC80; format: cell-based; conditions: Table 22, second listing of the same compounds
Sequence of Olfr741 (L7N1Y5 entry or part of it): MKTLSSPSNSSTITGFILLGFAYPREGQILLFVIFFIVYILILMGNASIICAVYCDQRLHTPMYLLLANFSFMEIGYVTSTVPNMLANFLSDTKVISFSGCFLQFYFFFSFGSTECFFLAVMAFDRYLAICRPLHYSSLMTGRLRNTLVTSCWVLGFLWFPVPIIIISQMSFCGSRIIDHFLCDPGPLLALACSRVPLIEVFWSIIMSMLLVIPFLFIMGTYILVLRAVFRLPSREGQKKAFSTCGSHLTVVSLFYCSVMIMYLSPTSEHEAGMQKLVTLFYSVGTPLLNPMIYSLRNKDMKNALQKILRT
Protocol: (§1) Using a cell-based assay, mouse receptor Olfr738, Olfr739, Olfr740, Olfr741, 0fr742, Olfr743, Olfr744, Olfr746, Olfr748 and Olfr749 were tested in an HEK293T cell line wherein the endogenous RTP1 gene has been activated and the odorant receptor chaperone was expressed (described in WO2016201153A1). The receptor genes were tagged with a Flag-Rho tag combination. Receptor genes were co-transfected with the canonical olfactory human G-protein alpha subunit Golf gene. Co-expression of the human Golf activates the Gs transduction pathway that leads to an internal cAMP increase upon binding to the appropriate ligand (indole here). Odorant-induced activity was detected by measuring the cAMP increase in the cytosol using an HTRF based kit (CisBio, cAMP dynamic 2 kit, cat. 62AM4PEJ).

[7] = target: Olfr738 (Mus musculus, UniProt L7N1X7); assay: as above; format: cell-based; conditions: Table 22, second listing of the same compounds; vs indole EC80
Sequence of Olfr738 (L7N1X7 entry or part of it): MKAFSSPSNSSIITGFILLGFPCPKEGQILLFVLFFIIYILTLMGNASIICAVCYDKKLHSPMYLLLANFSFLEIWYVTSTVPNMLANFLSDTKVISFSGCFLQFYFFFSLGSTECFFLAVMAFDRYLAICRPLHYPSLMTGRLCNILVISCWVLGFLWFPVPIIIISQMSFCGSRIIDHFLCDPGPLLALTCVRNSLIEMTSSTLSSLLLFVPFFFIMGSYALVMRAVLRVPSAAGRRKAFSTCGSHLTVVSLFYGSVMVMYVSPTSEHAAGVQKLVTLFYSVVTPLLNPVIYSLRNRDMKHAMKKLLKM
Protocol: as §1

[8] = target: Olfr742 (Mus musculus, UniProt A2RTP5); assay: as above; format: cell-based; conditions: HEK-293T, Table 22, second listing of the same compounds; vs indole EC80; read-out: Olfr742 % Inhibition
Sequence of Olfr742 (A2RTP5 entry or part of it): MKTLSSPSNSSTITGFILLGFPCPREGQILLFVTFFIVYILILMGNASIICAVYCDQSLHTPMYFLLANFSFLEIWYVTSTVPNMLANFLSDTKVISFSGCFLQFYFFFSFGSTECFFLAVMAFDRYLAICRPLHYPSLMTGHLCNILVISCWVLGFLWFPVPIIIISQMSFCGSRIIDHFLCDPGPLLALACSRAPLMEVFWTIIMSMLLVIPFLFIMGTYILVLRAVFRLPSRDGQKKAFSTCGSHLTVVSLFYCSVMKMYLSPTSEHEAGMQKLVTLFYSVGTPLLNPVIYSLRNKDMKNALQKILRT
Protocol: as §1

[9] = target: Olfr740 (Mus musculus, UniProt E9PV79); assay: as above; format: cell-based; conditions: HEK-293T, Table 22, second listing of the same compounds; vs indole EC80; read-out: Olfr740 % Inhibition
Sequence of Olfr740 (E9PV79 entry or part of it): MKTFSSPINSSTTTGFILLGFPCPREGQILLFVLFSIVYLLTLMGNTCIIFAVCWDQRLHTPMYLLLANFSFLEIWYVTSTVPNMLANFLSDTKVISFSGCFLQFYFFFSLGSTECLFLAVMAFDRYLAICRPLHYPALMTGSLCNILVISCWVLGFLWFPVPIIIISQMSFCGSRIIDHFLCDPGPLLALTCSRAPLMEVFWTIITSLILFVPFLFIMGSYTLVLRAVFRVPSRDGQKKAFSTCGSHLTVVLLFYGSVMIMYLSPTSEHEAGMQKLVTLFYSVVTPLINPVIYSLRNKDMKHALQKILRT
Protocol: as §1

[10] = target: Olfr739 (Mus musculus, UniProt E9Q1P0); assay: as above; format: cell-based; conditions: Table 22, second listing of the same compounds
Sequence of Olfr739 (E9Q1P0 entry or part of it): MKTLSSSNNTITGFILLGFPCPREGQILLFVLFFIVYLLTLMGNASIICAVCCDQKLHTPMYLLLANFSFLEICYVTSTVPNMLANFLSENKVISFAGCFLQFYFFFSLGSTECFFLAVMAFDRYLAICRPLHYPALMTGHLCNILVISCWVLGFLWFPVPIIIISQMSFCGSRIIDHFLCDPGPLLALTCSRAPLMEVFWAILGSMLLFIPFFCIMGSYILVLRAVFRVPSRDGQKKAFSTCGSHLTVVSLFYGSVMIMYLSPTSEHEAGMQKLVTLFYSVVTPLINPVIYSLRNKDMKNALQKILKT
Protocol: as §1, with “Functional dose-response experiments were performed to identify compounds capable of antagonizing indole-sensitive receptors previously identified (U.S. Pat. No. 9,914,760 B2). Using” for “Using”, “62AM4PEJ). The receptors were exposed to binary mixtures of increasing concentrations of the test compounds in the presence of a potent activation concentration of indole (EC80) for each receptor. […] All the compounds listed decreased the indole induced activity of at least one receptor.” for “62AM4PEJ).”

[11] = tested on: 1-octen-3-ol receptors OR2W1, Olfr93, Olfr120, Olfr398; assay: Antagonists of 1-octen-3-ol receptors (Example 11); format: cell-based, mouse and human; set-up: Inhibition(%): concentration or dose not given beside the values; conditions: Table 19
[12] = tested on: geonol receptors Olfr339, Olfr1487, Olfr1A1, OR11A1, Olfr96; assay: Antagonists of geonol receptors (Example 11); format: cell-based, mouse and human; set-up: Inhibition(%): concentration or dose not given beside the values; conditions: Table 18
[13] = tested on: OR2W1 or the OR1A1 olfactory receptor; assay: 1-octen-3-ol olfactory receptor antagonist cell-based dose-response vs 1-octen-3-ol EC80; conditions: for IC50: 1-octen-3-ol at EC80; for % Inhibition: maximum inhibition normalized to baseline agonist activity
Description: Each cell line was screened with a volatile compound library for their inhibitory properties and potential 1-octen-3-ol smell inhibition.
Single concentration monitoring of the 1-octen-3-ol induced cell activity in the presence or absence of a test compound allowed for the identification of compounds with a putative suppression or inhibitory effect.

[14] = Low Dilution Test Compound + Geonol (0.1%)
[15] = Medium Dilution Test Compound + Geonol (0.1%)
[16] = Low Dilution Test Compound + 1-octen-3-ol (0.15%)
[17] = Medium Dilution Test Compound + 1-octen-3-ol (0.15%)

Compound | % Earthy/Moss Odor [1] [%] | % Mushroom/Earthy/Fungal Odor [2] [%] | % Remaining in human sensory tests [3] | % Inhibition [4] [%] | IC50 [4] [µM] | further results
CC(=O)OC(c1ccccc1)C(Cl)(Cl)Cl (stereo not shown) [(2,2,2-trichloro-1-phenylethyl) acetate] | 38.60 | 30.00 | 61% | – | – | –
Cc1ccc(C(C)C)c(O)c1 [thymol, 5-Methyl-2-(propan-2-yl)phenol] | 54.70 | – | 53% | 100 | 107 | –
CC=CC(=O)C1C(C)C=CCC1(C)C (stereo not shown) [1-(2,6,6-trimethyl-1-cyclohex-3-enyl)but-2-en-1-one] | 31.80 | 24.00 | 66* % | 10 | 301 | IC50 [5]: 210 µM
CC1(C)CCCC2(C)CC(=O)CCC12 (racemic) | – | – | – | – | – | IC50 [6]: 106 µM; Olfr741 % Inhibition [6]: 65.60%; Olfr738 % Inhibition [7]: 123.10%; Emax [8]: 97%; Emax [9]: 81.4%; Olfr739 % Inhibition [10]: 107.89%
CC(C)=CCCC(C)=CC=O [3,7-dimethylocta-2,6-dienal] | 27.60 | 22.30 | 42* % | – | – | –
3-methyl-4-(2,6,6-trimethylcyclohex-2-en-1-yl)but-3-en-2-one; 1-(2,6,6-trimethylcyclohex-2-en-1-yl)pent-1-en-3-one | 29.40 | 20.00 | 38* % | – | – | % Earthy/Moss Odor Remaining [1, 14]: 75.80%; % Earthy/Moss Odor Remaining [1, 15]: 56.20%; % Mushroom/Earthy/Fungal Odor Remaining [2, 16]: 75.80%; % Mushroom/Earthy/Fungal Odor Remaining [2, 17]: 53.50%
Cc1ccc2c(c1)CC(C)(CO)C2 (stereo not shown) [(2,5-dimethyl-1,3-dihydroinden-2-yl)methanol] | 41.70 | 36.30 | 37* % | – | – | –
CC(=O)C=CC1=C(C)CCCC1(C)C [4-(2,6,6-trimethylcyclohexen-1-yl)but-3-en-2-one] | 41.80 | – | 43* % | – | – | IC50 [11]: 269 µM; Inhibition(%) [11]: 66%; IC50 [12]: 289 µM; Inhibition(%) [12]: 51%
CC1=CC(C)C(C=O)CC1 (stereo not shown) [2,4-dimethylcyclohex-3-enecarbaldehyde] | – | – | 45* % | – | – | IC50 [13]: 18.8 µM; % Inhibition [13]: 107.99%
O=C1CCC=CCCCCCCCCCC1 [cyclopentadec-4-en-1-one] | 49.90 | 25.80 | 47% | 45 | 61 | IC50 [11]: 57.8 µM; Inhibition(%) [11]: 130%
CC(=O)CCC=C(C)CCC=C(C)C [6,10-dimethylundeca-5,9-dien-2-one] | 52.80 | – | 45* % | 50 | 133 | –
CC(CC=O)CCCC(C)(C)O (stereo not shown) [7-hydroxy-3,7-dimethyloctanal] | – | – | 39* % | – | – | –
CC(=O)OCCc1ccccc1 [phenyl ethyl acetate] | 35.30 | – | 47* % | – | – | % Earthy/Moss Odor Remaining [1, 14]: 97.10%; % Earthy/Moss Odor Remaining [1, 15]: 65.80%
CCCCCCc1ccc(C)nc1 [5-hexyl-2-methylpyridine 10% Citr, 5-hexyl-2-methylpyridine] | 46.40 | – | 37% | – | 555 | –
CC(C)(C)c1ccccc1O [2-tertbutyl phenol] | 41.30 | – | 46* % | 100 | 88 | IC50 [13]: 37 µM; % Inhibition [13]: 100.34%
1,4,8-trimethyl-13-oxabicyclo[10.1.0]trideca-4,8-diene; 1,5,8-trimethyl-13-oxabicyclo[10.1.0]trideca-4,8-diene | 43.30 | 30.20 | 85% | 50 | 81 | IC50 [13]: 266 µM; % Inhibition [13]: 70.92%; % Earthy/Moss Odor Remaining [1, 14]: 92.00%; % Earthy/Moss Odor Remaining [1, 15]: 91.50%; % Mushroom/Earthy/Fungal Odor Remaining [2, 16]: 93.80%; % Mushroom/Earthy/Fungal Odor Remaining [2, 17]: 79.50%
CCC=CCCC=CC=O [nona-2,6-dienal] | 65.40 | – | 67% | 80 | 156 | –
CC=Cc1ccc(OCC)c(O)c1 [Compound 2-ethoxy-5-prop-1-enylphenol, 2-ethoxy-5-prop-1-enylphenol] | 27.10 | 23.20 | 34* % | 33 | 111 | –
CCCCCC1CCCC1=O (stereo not shown) [Compound 2-pentylcyclopentan-1-one, 2-pentylcyclopentan-1-one] | 40.90 | – | 78% | – | – | –
